Measured values as given in article PMC4790851, “Iminosugars Inhibit Dengue Virus Production via Inhibition of ER Alpha-Glucosidases—Not Glycolipid Processing Enzymes” (PLoS Neglected Tropical Diseases, 2016).

Experiments:
[1] = molecular target: T1, ER α-glucosidase II (Homo sapiens, UniProt Q14697); test: Free oligosaccharide analysis in MDMΦs: Glc1Man4GlcNAc1; type: cell-based; conditions: 48 h; for accumulation of Glc1Man4GlcNAc1: 1 μM, MDMΦs, all donors; for FOS representative of ER α-glucosidase II inhibition (Glc1Man4GlcNAc1): MNTD of iminosugar (NB-DNJ 100 μM), uninfected MDMΦs
T1 construct: endogenous in cells; host or cells: primary human monocyte-derived macrophages (MDMΦ)
T1 sequence (Q14697 29-944): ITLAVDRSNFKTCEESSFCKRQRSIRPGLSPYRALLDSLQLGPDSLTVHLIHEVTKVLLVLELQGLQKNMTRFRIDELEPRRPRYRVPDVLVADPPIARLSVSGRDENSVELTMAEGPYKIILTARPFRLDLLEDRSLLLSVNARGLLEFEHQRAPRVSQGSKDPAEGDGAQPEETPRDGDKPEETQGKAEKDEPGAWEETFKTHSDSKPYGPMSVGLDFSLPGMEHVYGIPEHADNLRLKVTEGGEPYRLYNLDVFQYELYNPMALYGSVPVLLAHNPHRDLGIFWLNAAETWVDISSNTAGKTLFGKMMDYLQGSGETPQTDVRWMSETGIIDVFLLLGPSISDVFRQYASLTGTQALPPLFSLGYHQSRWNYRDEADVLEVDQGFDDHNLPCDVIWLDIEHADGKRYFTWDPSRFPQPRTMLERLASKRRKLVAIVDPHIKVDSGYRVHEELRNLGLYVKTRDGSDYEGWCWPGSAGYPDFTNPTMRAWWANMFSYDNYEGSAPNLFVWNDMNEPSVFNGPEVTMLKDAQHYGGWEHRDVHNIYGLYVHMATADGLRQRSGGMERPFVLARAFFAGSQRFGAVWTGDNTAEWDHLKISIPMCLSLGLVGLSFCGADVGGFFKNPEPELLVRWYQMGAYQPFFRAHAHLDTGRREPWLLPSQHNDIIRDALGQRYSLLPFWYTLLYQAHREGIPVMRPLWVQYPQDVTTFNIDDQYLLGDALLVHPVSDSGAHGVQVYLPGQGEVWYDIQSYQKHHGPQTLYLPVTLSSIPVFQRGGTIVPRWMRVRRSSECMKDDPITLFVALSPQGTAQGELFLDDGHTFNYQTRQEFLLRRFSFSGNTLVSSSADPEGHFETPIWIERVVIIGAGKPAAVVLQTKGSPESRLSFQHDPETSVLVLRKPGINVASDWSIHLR
T1 sequence (P14314 15-528 partner): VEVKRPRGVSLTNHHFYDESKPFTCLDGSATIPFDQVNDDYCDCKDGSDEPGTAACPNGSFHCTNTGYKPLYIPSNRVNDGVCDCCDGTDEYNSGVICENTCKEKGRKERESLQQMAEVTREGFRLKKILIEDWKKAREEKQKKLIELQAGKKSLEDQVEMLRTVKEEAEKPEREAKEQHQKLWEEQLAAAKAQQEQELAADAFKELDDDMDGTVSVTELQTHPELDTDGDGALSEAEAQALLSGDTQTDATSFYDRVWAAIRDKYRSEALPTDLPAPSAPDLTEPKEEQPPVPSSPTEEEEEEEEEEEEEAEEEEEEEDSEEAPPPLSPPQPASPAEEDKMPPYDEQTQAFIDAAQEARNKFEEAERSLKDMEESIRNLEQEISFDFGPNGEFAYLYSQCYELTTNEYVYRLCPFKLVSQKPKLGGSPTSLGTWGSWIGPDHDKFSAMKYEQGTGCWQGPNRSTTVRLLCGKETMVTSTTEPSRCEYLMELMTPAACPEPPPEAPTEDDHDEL

[2] = test system: lysosomal β-N-acetylhexosaminidase; test: Free oligosaccharide analysis in MDMΦs: hexosaminidase-related FOS; type: cell-based, human; conditions: MNTD, 48 h
Method: MDMΦ were infected with DENV2 16681 diluted to a multiplicity of infection (MOI) of 1 in X-VIVO10 without supplements for 90 minutes (20°C, with rocking). Upon removal of virus, fresh MDMΦ growth medium without IL-4 but containing serial dilutions of drug or control was placed on the cells, and cells were incubated for 48 hours (37°C, 5% CO2). For collection of infectious virus, supernatant was harvested and centrifuged for 5 minutes (room temperature, 400 x g) to pellet any cells/debris, and supernatants were aliquoted and stored at -80°C until analysis by plaque assay. In the case of FOS and GSL assays where MDMΦ were uninfected, treatments were essentially as above except that no virus was added and cells were washed three times with sterile PBS after 24 or 48 hours as per sample time point. […]
MDMΦ FOS were detected as previously described by Alonzi et al.. […] Glycans were separated by normal phase-high performance liquid chromatography (NP-HPLC), and peak area was used to assess molar quantity in comparison to standards of known identity and quantity. […] Absorbance values (Axxx) at 595 nm and 420 nm were measured, and the ratio of A595 to A420 was used to determine protein concentration in comparison to a serially diluted standard of bovine serum albumin.

| SMILES | accumulation of Glc1Man4GlcNAc1 [1] | FOS representative of ER α-glucosidase II inhibition (Glc1Man4GlcNAc1) [1] | FOS generated by inhibition of lysosomal β-N-acetylhexosaminidase [2] |
| --- | --- | --- | --- |
| CCCC(=O)O[C@H]1CN2CC[C@H](O)[C@@H]2[C@@H](O)[C@@H]1O [Celgosivir, 6-O-butanoyl-castanospermine] | led to accumulation of Glc1Man4GlcNAc1 | – | – |
| CCCCN1C[C@H](O)[C@@H](O)[C@@H](O)[C@H]1CO [NB-DGJ] | – | fail to produce detectable ER α-glucosidase associated FOS | do produce FOS generated by inhibition of lysosomal β-N-acetylhexosaminidase |
| CCCCN1C[C@H](O)[C@@H](O)[C@H](O)[C@H]1CO [NB-DNJ, N-butyl-DNJ] | led to accumulation of Glc1Man4GlcNAc1 | accumulation of peaks representative of inhibition of both α-glucosidases | – |
| CCCCCCCCCN1C[C@H](O)[C@@H](O)[C@@H](O)[C@H]1CO [NN-DGJ] | – | – | do produce FOS generated by inhibition of lysosomal β-N-acetylhexosaminidase |
